According to patent US11123332B2 (priority 2018, dated 2021):
“Also recorded” adds a separate entry of the source. Where two headings read alike, the source gives them in different places.

Key:
insomnia = conditions: three-month efficacy study; cited from earlier work
[1] = cited from earlier work; for Apparent t1/2: harmonic mean N = 10; for Tmax: median N = 10
mouse = assay: forced swim test; assay type: in vivo; conditions: for time spent in floating (immobility) during a 6 min forced swim: compared to control vehicle-treated group, FIG. 5; for time spent floating in forced swim: single dose 10 mg/kg, vs vehicle
Method: The forced swim test is a frequently used behavioral protocol with a well-established therapeutic predictability for a broad range of antidepressants including ketamine (Porsolt et al. 1977; Cryan and Mombereau 2004; Cryan et al. 2005; Lucki et al. 2001). In this test the mouse is put in a beaker filled with water and the time spent struggling, swimming and floating is measured, with the time spent floating when the mouse stops struggling to swim—being used as a behavioral correlate of depression.

[2] = system: combined delta, theta and alpha activity; conditions: 160 minutes after the first treatment; Nutt et al (2015); cited from earlier work
[3] = system: patients with severe major depressive disorder; conditions: daily oral gaboxadol 5 mg or 10 mg with escitalopram 20 mg, 490 patients; cited from earlier work
[4] = system: mouse brain (c-fos expression)
Source text: A unique and novel approach to preclinical testing of psychiatric drugs is based on the proposition that a direct readout of drug-evoked brain activation or inhibition in an animal is the most relevant preclinical assay, because psychiatric drugs exert their effects via activation or inhibition of specific neural circuits and cell types in the brain. […] The method called “pharmacomapping” (implemented by Certerra, Inc. Farmingdale, N.Y.) is based on a largely automated drug-screening platform that comprises whole-brain detection of drug-evoked neuronal activation represented by drug-evoked expression of the immediate early gene (IEG) c-fos (Herrera and Robertson 1996). Until now, the detection of c-fos as a marker of brain activation has been done by laborious methods of in situ hybridization or immunohistochemistry in brain tissue sections, followed by mounting the sections on microscopic slides, manual imaging, and largely visual quantification. Nevertheless, over the last two decades a number of studies used these methods to test drug-evoked activity in the mouse or rat brain for various psychoactive medications, including antipsychotics, antidepressants, stimulants and anxiolytics (Engber et al., 1998; Kiss, 2018; Salminen et al., 1996; SEMBA et al., 1996; Slattery et al., 2005; Sumner et al., 2004).
In contrast to the older methods, the pharmacomapping method uses automated and standardized whole-brain immunostaining and brain clearing together with advanced microscopy (light-sheet fluorescence microscopy, LSFM), computational (e.g. machine learning) and statistical methods (FIG. 1). The first generation of this platform used serial two-photon tomography (STPT) as a method for imaging and c-fos-GFP mice expressing green fluorescent protein (GFP) under the control of the c-fos promoter (US 20140297199A1).

[5] = 10 mg I.V., geometric mean N = 10
[6] = 10 mg Oral, geometric mean N = 10
[7] = acute single dose 10 mg/kg, 10 mg/kg

For Oc1noc2c1CCNC2 [gaboxadol, 4,5,6,7-tetrahydroisoxazolo (5,4-c) pyridin-3-ol], the “effects in sleep onset and sleep maintenance” value (insomnia) is given as “failed to show significant effects”, the fe ([1]; 2.5 mg single oral dose, geometric mean N = 10) is given as 43% and the “AUC0-∞” value ([1]; 2.5 mg single oral dose, geometric mean N = 10, potency adjusted) is given as 90 ng·h/mL. The “Apparent t1/2” value ([1]; 2.5 mg single oral dose) was 1.5 h, the Tmax ([1]; 2.5 mg single oral dose) was 0.5 h and the fe ([1]; 5 mg single oral dose, geometric mean N = 10) was 45%. The “Apparent t1/2” value ([1]; 5 mg single oral dose) was 1.5 h, the Tmax ([1]; 5 mg single oral dose) was 0.6 h and the “AUC0-∞” value [1, 5] was 380 ng·h/mL. The fe [1, 5] was 53%, the “Apparent t1/2” value ([1]; 10 mg I.V.) was 1.5 h and the CLR [1, 6] was 250 mL/min. For the same compound, the fe [1, 6] was 53%, the “Apparent t1/2” value ([1]; 10 mg Oral) was 1.6 h and the Tmax ([1]; 10 mg Oral) was 0.5 h. The fe ([1]; 15 mg single oral dose, geometric mean N = 10) was 50%, the “Apparent t1/2” value ([1]; 15 mg single oral dose) was 1.5 h and the Tmax ([1]; 15 mg single oral dose) was 0.5 h. For the same compound, the fe ([1]; 20 mg single oral dose, geometric mean N = 10) was 53%, the “Apparent t1/2” value ([1]; 20 mg single oral dose) was 1.6 h and the Tmax ([1]; 20 mg single oral dose) was 0.6 h. For the same compound, the “dose proportionality of plasma AUC0-∞ and Cmax” value ([1]; dose range 2.5 to 20 mg oral) was “dose proportional increases”, the “half-life (t1/2)” value ([1]; independent of dose across 2.5 to 20 mg oral) was 1.5 h and the “time spent in floating (immobility) during a 6 min forced swim” value (mouse) was “significantly reduced”. For the same compound, the “time spent floating in forced swim” value (mouse; 1 hour after drug delivery) was “nearly identical behavioral effect as the ketamine group”, the “time spent floating in forced swim” value (mouse; 24 hours after drug delivery) was “nearly identical behavioral effect as the ketamine group” and the “whole head MEG planar gradiometer increase in combined delta, theta and alpha activity” value [2] was “≥ +3”. For the same compound, the “additional benefit in treatment of severe major depressive disorder” value [3] was “no additional benefit”, the “drug-evoked brain activation (pharmacomap)” value (shortened to “drug-evoked brain activation”) ([4]; 3 mg/kg alone) was “neither gaboxadol at 3 mg/kg nor ketamine at 6 mg/kg alone evoked any brain activation detectable” and the “drug-evoked brain activation” value [4, 7] was “very similar brain activation as ketamine”. The “drug-evoked brain activation” value ([4]; acute single dose 10 mg/kg, listed as Gaboxadol, 10 mg/kg) was “broad brain activation that is highly similar to that of ketamine”.

For CNC1(c2ccccc2Cl)CCCCC1=O (centres unmarked) [ketamine], the “time spent in floating (immobility) during a 6 min forced swim” value (mouse) was “significantly reduced”, the “time spent floating in forced swim” value (mouse; 1 hour after drug delivery) was “significantly decreases” and the “time spent floating in forced swim” value (mouse; 24 hours after drug delivery) was “significantly decreases”. For the same compound, the “drug-evoked brain activation” value ([4]; 6 mg/kg alone) was “neither gaboxadol at 3 mg/kg nor ketamine at 6 mg/kg alone evoked any brain activation detectable”, the “drug-evoked brain activation” value ([4]; acute single dose 5 mg/kg) was “modest activation” and the “drug-evoked brain activation” value [4, 7] was “very robust and broad activation; also recorded: very broad activation pattern”. The “drug-evoked brain activation” value ([4]; acute single dose 100 mg/kg) was “modest activation”.
